Data from patent US4415574A, “Soluble N2 substituted derivatives of 2,4-diamino 5-benzyl pyrimidine, process for their preparation and medicaments containing them” (S. A. Panmedica, priority 1981, dated 1983).
Like-named read-outs stand apart in the source and are kept apart here.

Tests used:
[1] = Solubility in water / pH of aqueous solutions; format: physicochemical; conditions: pH value
dehydrofolate-reductase = conditions: cited from earlier work
bacteria = conditions: Gram-positive cocci, Gram-negative cocci and Gram negative bacilli; cited from earlier work
in vivo = conditions: mouse
BACIL PUMILUS = assay: Inhibiting minimum concentration (I.M.C.), activity relative to trimethoprime, MULLER HINTON BACIL PUMILUS MEDIUM; format: cell-based
Procedure: (§1) The antibacterial activity of the derivatives according to the invention were tested in vitro by determining the inhibiting minimum concentrations (I.M.C.) on different germs.

COLI [2] = assay: Inhibiting minimum concentration (I.M.C.), activity relative to trimethoprime, OXOIDE COLI MEDIUM 4; format: cell-based
Procedure: as §1

COLI [3] = assay: Inhibiting minimum concentration (I.M.C.), activity relative to trimethoprime, MULLER HINTON COLI MEDIUM 4; format: cell-based
Procedure: as §1

[4] = ratio of I.M.C. to trimethoprime
[5] = ratio to trimethoprime, corrected by molecular weight

COc1cc(Cc2cnc(NC(c3ccccn3)S(=O)(=O)O)nc2N)cc(OC)c1OC (centres unmarked) [Example 22, N2 2-Pyridyl Methane Sulfonic Acid of 5-(3,4,5-Trimethoxy Benzyl) 2,4-Diamino Pyrimidine]
pH at which the derivative is insoluble [1]: 5.6

COc1cc(Cc2cnc(N)nc2N)cc(OC)c1OC [Trimethoprime, 5-(3,4,5-trimethoxybenzyl) 2,4diamino pyrimidine]
interference with dehydrofolate-reductase (words, prior art) (dehydrofolate-reductase): interferes with dehydrofolate-reductase | antibacterial activity (words, prior art) (bacteria): very wide-spectrum antibacterial agent

CCOc1cc(C(Nc2ncc(Cc3cc(OC)c(OC)c(OC)c3)c(N)n2)S(=O)(=O)O)ccc1O (centres unmarked) [Example 24f, N2 (3-Ethoxy 4-Hydroxy) Phenyl Methane Sulfonic Acid of 5-(3,4,5-Trimethoxy Benzyl) 2,4-Diamino Pyrimidine]
LD50 (in vivo; iv, read-out: LD 50 I.V.): 1000 mg/kg | LD50 (in vivo; po, read-out: LD 50 by mouth): > 12000 mg/kg | % activity with respect to the base (BACIL PUMILUS; [4]): 31.8% | % activity with respect to the base corrected by molecular weight (BACIL PUMILUS; [5]): 73% | % activity with respect to the base (COLI [2]; [4]): 27.4% | % activity with respect to the base corrected by molecular weight (COLI [2]; [5]): 63% | % activity with respect to the base (COLI [3]; [4]): 40.3% | % activity to the base corrected by molecular weight (COLI [3]; [5]): 92%
